# Experimental data as given in patent US8247409B2, “Thieno-[2,3-d]pyrimidine and thieno-pyridazine compounds and methods of use” (Amgen Inc., priority 2006, dated 2012).
# Tested on: LPS induced TNF release from monocytes
# Assay: Lipopolysaccharide-activated Monocyte TNF Production Assay
# Assay type: cell-based
# Details: Homo sapiens, monocytes activated with LPS, TNF in supernatant by ELISA
# Method: Lipopolysaccharide-activated Monocyte TNF Production Assay
# Test compounds were evaluated in vitro for the ability to inhibit the production of TNF by monocytes activated with bacterial lipopolysaccharide (LPS). Fresh residual source leukocytes (a byproduct of plateletpheresis) were obtained from a local blood bank, and peripheral blood mononuclear cells (PBMCs) were isolated by density gradient centrifugation on Ficol-Paque Plus (Pharmacia). PBMCs were suspended at 2×10^6/mL in DMEM supplemented to contain 2% FCS, 10 mM, 0.3 mg/mL […], 100 U/mL penicillin G and […] streptomycin sulfate (complete media). Cells were plated into Falcon flat bottom, 96 well culture plates (200 μL/well) and cultured overnight at 37° C. and 6% CO2. Non-adherent cells were removed by washing with 200 μL/well of fresh medium. Wells containing adherent cells (˜70% monocytes) were replenished with 100 μL of fresh medium.
# Preparation of Test Compound Stock Solutions
# Test compounds were dissolved in […]. Compound stock solutions were prepared to an initial concentration of […]. Stocks were diluted initially to 20-200 μM in complete media. Nine two-fold serial dilutions of each compound were then prepared in complete medium.
# Treatment of Cells with Test Compounds and Activation of TNF Production with Lipopolysaccharide
# One hundred microliters of each test compound dilution were added to microtiter wells containing adherent monocytes and 100 μL complete medium. Monocytes were cultured with test compounds for 60 min at which time 25 μL of complete medium containing 30 ng/mL lipopolysaccharide from E. coli K532 were added to each well. Cells were cultured an additional 4 hrs. Culture supernatants were then removed and TNF presence in the supernatants was quantified using an ELISA.
# Flat bottom, 96 well Corning High Binding ELISA plates were coated overnight (4° C.) with 150 μL/well of 3 μg/mL murine anti-human TNF-α MAb (R&D Systems #MAB210). Wells were then blocked for 1 h at room temperature with 200 μL/well of CaCl2-free ELISA buffer supplemented to contain 20 mg/mL BSA (standard ELISA buffer: […], 150 mM NaCl, 2 mM CaCl2, 0.15 mM thimerosal, pH 7.4). Plates were washed and replenished with 100 μL of test supernatants (diluted 1:3) or standards. Standards consisted of eleven 1.5-fold serial dilutions from a stock of 1 ng/mL recombinant human TNF (R&D Systems). Plates were incubated at room temperature for 1 hr on orbital shaker (300 rpm); washed and replenished with 100 μL/well of 0.5 μg/mL goat anti-human TNF-α (R&D systems #AB-210-NA) biotinylated at a 4:1 ratio. Plates were incubated for 40 min, washed and replenished with 100 μL/well of alkaline phosphatase-conjugated streptavidin (Jackson ImmunoResearch #016-050-084) at 0.02 μg/mL. Plates were incubated 30 min, washed and replenished with 200 μL/well of 1 mg/mL of p-nitrophenyl phosphate. After 30 min, plates were read at 405 nm on a Vmax plate reader.
# Standard curve data were fit to a second order polynomial and unknown TNF-α concentrations determined from their OD by solving this equation for concentration. TNF concentrations were then plotted vs. test compound concentration using a second order polynomial. This equation was then used to calculate the concentration of test compounds causing a 50% reduction in TNF production.
row,Compound,IC50
1,"Cc1ccc(C(=O)NC2CC2)cc1-c1cc2cnc(CCN3CCOCC3)nc2s1 [Example 1, N-Cyclopropyl-4-methyl-3-(2-(2-morpholinoethyl)thieno[2,3-d]pyrimidin-6-yl)benzamide]",≤ 5 µM
2,"Cc1ccc(C(=O)NC2CC2)cc1-c1cc2cnnc(N3CCNC(=O)C3)c2s1 [Example 6, N-cyclopropyl-4-methyl-3-(7-(3-oxopiperazin-1-yl)thieno[2,3-d]pyridazin-2-yl)benzamide]",≤ 5 µM
3,"CCN(CC)CCCNc1ncc2cc(-c3cc(C(=O)NC4CC4)ccc3C)sc2n1 [Example 7, N-cyclopropyl-3-(2-((3-(diethylamino)propyl)amino)thieno[2,3-d]pyrimidin-6-yl)-4-methylbenzamide]",≤ 5 µM
4,"CCNC(=O)c1ccc(C)c(-c2cc3cnc(NCCN4CCOCC4)nc3s2)c1 [Example 9, N-ethyl-4-methyl-3-(2-((2-(4-morpholinyl)ethyl)amino)thieno[2,3-d]pyrimidin-6-yl)benzamide]",≤ 5 µM
5,"Cc1ccc(C(=O)O)cc1-c1cc2cnc(NCCN3CCOCC3)nc2s1 [Example 10, 4-methyl-3-(2-((2-(4-morpholinyl)ethyl)amino)thieno[2,3-d]pyrimidin-6-yl)benzoic acid]",≤ 5 µM
6,"Cc1ccc(C(=O)NC2CC2)cc1-c1cc2cnc(NCC3CCCN(C(=O)OC(C)(C)C)C3)nc2s1 (centres unmarked) [Example 14, 1,1-dimethylethyl 3-(((6-(5-((cyclopropylamino)carbonyl)-2-methylphenyl)thieno[2,3-d]pyrimidin-2-yl)amino)methyl)-1-piperidinecarboxylate]",≤ 5 µM

# Results, then the compound that gave them:
row,IC50,Compound
1,≤ 5 µM,"COc1c(F)cccc1-c1nncc2cc(-c3cc(C(=O)NC4CC4)ccc3C)sc12 [Example 3, N-cyclopropyl-3-(7-(3-fluoro-2-methoxyphenyl)thieno[2,3-d]pyridazin-2-yl)-4-methylbenzamide]"
2,≤ 5 µM,"Cc1ccc(C(=O)NC2CC2)cc1-c1cc2cnnc(Cl)c2s1 [Example 21, 3-(7-chlorothieno[2,3-d]pyridazin-2-yl)-N-cyclopropyl-4-methylbenzamide]"
3,≤ 5 µM,"Cc1ccc(C(=O)NC2CC2)cc1-c1cc2cnnc(-c3ccc(F)cc3C)c2s1 [Example 22, N-cyclopropyl-3-(7-(4-fluoro-2-methylphenyl)thieno[2,3-d]pyridazin-2-yl)-4-methylbenzamide]"
4,≤ 5 µM,"COc1ncccc1-c1nncc2cc(-c3cc(C(=O)NC4CC4)ccc3C)sc12 [Example 23, N-cyclopropyl-4-methyl-3-(7-(2-(methyloxy)-3-pyridinyl)thieno[2,3-d]pyridazin-2-yl)benzamide]"
5,≤ 5 µM,"Cc1ccc(C(N)=O)cc1-c1cc2cnnc(-c3ccc(F)cc3C)c2s1 [Example 27, 3-(7-(4-fluoro-2-methylphenyl)thieno[2,3-d]pyridazin-2-yl)-4-methylbenzamide]"
